Reference: ChEMBL document CHEMBL3108684, “Discovery and development of potent and selective inhibitors of histone methyltransferase g9a” (ACS Med Chem Lett, 2014)
Blank lines part the entries; values can stand above or below the compound they belong to. Activity calls are given as the source filed them. The rule behind the calls is not given here.

Assays:
[1] = molecular target: Histone-lysine N-methyltransferase SMYD3 (Homo sapiens) (UniProt Q9H7B4); test: Inhibition of SMYD3 (unknown origin)-mediated incorporation of methyl group from [3H]-SAM into peptide substrate up to 50 uM by scintillation proximity assay
[2] = molecular target: Histone-lysine N-methyltransferase SUV39H2 (Homo sapiens) (UniProt Q9H5I1); test: Inhibition of SUV39H2 (unknown origin)-mediated incorporation of methyl group from [3H]-SAM into peptide substrate up to 50 uM by scintillation proximity assay
PC-3 [3] = test: Effect on total histone 3 protein level in human PC3 cells at 0.01 to 10 uM after 72 hrs by Western blotting analysis; assay type: functional, cell-based
PC-3 [4] = test: Effect on total H3K27Me3 protein level in human PC3 cells at 0.01 to 10 uM after 72 hrs by Western blotting analysis; assay type: functional, cell-based
[5] = molecular target: Histone-lysine N-methyltransferase SETD7 (Homo sapiens) (UniProt Q8WTS6); test: Inhibition of SETD7 (unknown origin)-mediated incorporation of methyl group from [3H]-SAM into peptide substrate up to 50 uM by scintillation proximity assay
[6] = molecular target: Protein arginine N-methyltransferase 3 (Homo sapiens) (UniProt O60678); test: Inhibition of PRMT3 (unknown origin)-mediated incorporation of methyl group from [3H]-SAM into peptide substrate up to 50 uM by scintillation proximity assay
[7] = molecular target: Histone-lysine N-methyltransferase EHMT2 (Homo sapiens) (UniProt Q96KQ7); conditions: PC-3, 3 uM
Description: Inhibition of G9a in human PC3 cells assessed as reduction in H3K9Me2 level at 3 uM after 72 hrs by Western blotting analysis relative to control

[8] = molecular target: Histone-lysine N-methyltransferase, H3 lysine-79 specific (Homo sapiens) (UniProt Q8TEK3); test: Inhibition of DOT1L (unknown origin)-mediated incorporation of methyl group from [3H]-SAM into peptide substrate up to 50 uM after 1 hr by scintillation proximity assay
[9] = molecular target: Protein arginine N-methyltransferase 1 (Homo sapiens) (UniProt Q99873); test: Inhibition of PRMT1 (unknown origin)-mediated incorporation of methyl group from [3H]-SAM into peptide substrate up to 50 uM by scintillation proximity assay
PC-3 [10] = test: Effect on total H3K36Me2 protein level in human PC3 cells at 0.01 to 10 uM after 72 hrs by Western blotting analysis; assay type: functional, cell-based
[11] = molecular target: Histone-lysine N-methyltransferase EHMT1 (Homo sapiens, UniProt Q9H9B1); test: Inhibition of GLP (unknown origin)-mediated incorporation of methyl group from [3H]-SAM into peptide substrate by scintillation proximity assay
[12] = molecular target: PRMT5/MEP50 complex (Homo sapiens) (UniProt O14744+Q9BQA1); test: Inhibition of PRMT5/MEP50 complex (unknown origin)-mediated incorporation of methyl group from [3H]-SAM into peptide substrate up to 50 uM by scintillation proximity assay; assay type: protein-complex assay
[13] = molecular target: N-lysine methyltransferase SMYD2 (Homo sapiens) (UniProt Q9NRG4); test: Inhibition of SMYD2 (unknown origin)-mediated incorporation of methyl group from [3H]-SAM into peptide substrate up to 50 uM by scintillation proximity assay
[14] = molecular target: EZH1/SUZ12/EED/AEBP2/RBBP4 complex (Homo sapiens) (UniProt Q92800+O75530+Q15022+Q6ZN18+Q09028); test: Inhibition of EZH1/EED/SUZ12/AEBP2/RBBP4 complex (unknown origin)-mediated incorporation of methyl group from [3H]-SAM into peptide substrate up to 50 uM by scintillation proximity assay; assay type: protein-complex assay
[15] = molecular target: Protein arginine N-methyltransferase 6 (Homo sapiens) (UniProt Q96LA8); test: Inhibition of PRMT6 (unknown origin)-mediated incorporation of methyl group from [3H]-SAM into peptide substrate up to 50 uM by scintillation proximity assay
[16] = molecular target: Histone-lysine N-methyltransferase SETDB1 (Homo sapiens) (UniProt Q15047); test: Inhibition of SETDB1 (unknown origin)-mediated incorporation of methyl group from [3H]-SAM into peptide substrate up to 50 uM by scintillation proximity assay
[17] = molecular target: EZH2/SUZ12/EED complex (Homo sapiens) (UniProt Q15910+O75530+Q15022); test: Inhibition of EZH2/SUZ12/EED complex (unknown origin)-mediated incorporation of methyl group from [3H]-SAM into peptide substrate up to 50 uM by scintillation proximity assay; assay type: protein-complex assay
[18] = molecular target: Histone-lysine N-methyltransferase SETD2 (Homo sapiens) (UniProt Q9BYW2); test: Inhibition of SETD2 (unknown origin)-mediated incorporation of methyl group from [3H]-SAM into peptide substrate up to 50 uM by scintillation proximity assay
[19] = molecular target: N-lysine methyltransferase KMT5A (Homo sapiens) (UniProt Q9NQR1); test: Inhibition of SETD8 (unknown origin)-mediated incorporation of methyl group from [3H]-SAM into peptide substrate up to 50 uM by scintillation proximity assay
[20] = molecular target: Histone-lysine N-methyltransferase KMT5C (Homo sapiens) (UniProt Q86Y97); test: Inhibition of SUV420H2 (unknown origin)-mediated incorporation of methyl group from [3H]-SAM into peptide substrate up to 50 uM by scintillation proximity assay
[21] = molecular target: Histone-lysine N-methyltransferase NSD3 (Homo sapiens) (UniProt Q9BZ95); test: Inhibition of WHSC1L (unknown origin)-mediated incorporation of methyl group from [3H]-SAM into peptide substrate up to 50 uM after 1 hr by scintillation proximity assay
[22] = molecular target: Histone-lysine N-methyltransferase KMT5B (Homo sapiens) (UniProt Q4FZB7); test: Inhibition of SUV420H1 (unknown origin)-mediated incorporation of methyl group from [3H]-SAM into peptide substrate up to 50 uM by scintillation proximity assay
[23] = molecular target: Protein arginine N-methyltransferase 8 (Homo sapiens) (UniProt Q9NR22); test: Inhibition of PRMT8 (unknown origin)-mediated incorporation of methyl group from [3H]-SAM into peptide substrate up to 50 uM by scintillation proximity assay
[24] = molecular target: MLL1/ASH2L/RBBP5/WDR5 complex (Homo sapiens) (UniProt P61964+Q03164+Q9UBL3+Q15291); test: Inhibition of MLL1/ASH2L/RBBP5/WDR5 complex (unknown origin)-mediated incorporation of methyl group from [3H]-SAM into peptide substrate up to 50 uM by scintillation proximity assay; assay type: protein-complex assay
[25] = molecular target: Histone-lysine N-methyltransferase NSD2 (Homo sapiens) (UniProt O96028); test: Inhibition of WHSC1 (unknown origin)-mediated incorporation of methyl group from [3H]-SAM into peptide substrate up to 50 uM after 1 hr by scintillation proximity assay
[26] = molecular target: DNA (cytosine-5)-methyltransferase 1 (Homo sapiens) (UniProt P26358); test: Inhibition of DNMT1 (unknown origin)-mediated incorporation of methyl group from [3H]-SAM into dsDNA substrate up to 50 uM by scintillation proximity assay
[27] = molecular target: T1, Histone-lysine N-methyltransferase EHMT2 (Homo sapiens, UniProt Q96KQ7); test: Inhibition of G9a (unknown origin) using biotinylated-histone H3(1-21) peptide as substrate after 3 hrs by AlphaLISA assay
T1 sequence (Q96KQ7 whole entry): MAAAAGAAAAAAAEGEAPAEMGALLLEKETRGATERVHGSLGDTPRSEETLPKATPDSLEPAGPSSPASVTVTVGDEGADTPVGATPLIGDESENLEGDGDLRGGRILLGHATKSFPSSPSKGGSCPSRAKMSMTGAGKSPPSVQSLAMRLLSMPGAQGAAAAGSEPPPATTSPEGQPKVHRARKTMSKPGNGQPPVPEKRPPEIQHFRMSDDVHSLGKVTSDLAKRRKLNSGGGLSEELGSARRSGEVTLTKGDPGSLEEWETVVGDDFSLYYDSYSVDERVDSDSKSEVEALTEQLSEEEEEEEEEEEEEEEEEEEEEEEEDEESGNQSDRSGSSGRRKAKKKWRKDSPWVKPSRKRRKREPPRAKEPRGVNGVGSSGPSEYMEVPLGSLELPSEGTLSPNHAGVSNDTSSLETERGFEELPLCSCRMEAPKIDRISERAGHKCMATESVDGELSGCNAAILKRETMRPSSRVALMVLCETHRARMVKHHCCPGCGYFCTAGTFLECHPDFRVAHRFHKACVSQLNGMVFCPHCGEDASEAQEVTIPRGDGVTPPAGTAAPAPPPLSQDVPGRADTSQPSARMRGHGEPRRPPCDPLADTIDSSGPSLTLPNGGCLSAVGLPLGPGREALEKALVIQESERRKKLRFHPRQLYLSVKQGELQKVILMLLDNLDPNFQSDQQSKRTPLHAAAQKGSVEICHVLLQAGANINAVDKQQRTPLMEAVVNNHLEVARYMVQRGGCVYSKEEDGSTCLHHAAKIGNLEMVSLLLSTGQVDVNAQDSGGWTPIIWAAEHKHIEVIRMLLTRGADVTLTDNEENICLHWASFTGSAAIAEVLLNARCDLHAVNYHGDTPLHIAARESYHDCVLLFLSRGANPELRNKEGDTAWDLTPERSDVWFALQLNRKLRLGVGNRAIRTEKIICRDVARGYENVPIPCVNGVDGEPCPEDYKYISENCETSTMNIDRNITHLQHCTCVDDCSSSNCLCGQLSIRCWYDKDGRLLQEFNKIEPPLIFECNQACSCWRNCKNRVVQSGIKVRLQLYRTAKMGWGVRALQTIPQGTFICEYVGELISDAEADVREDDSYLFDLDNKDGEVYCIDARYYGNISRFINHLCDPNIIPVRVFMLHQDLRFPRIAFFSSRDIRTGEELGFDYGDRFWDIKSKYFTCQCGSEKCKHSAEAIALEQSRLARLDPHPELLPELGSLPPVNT

Chain of N-lysine methyltransferase KMT5A (Homo sapiens) (Q9NQR1 whole entry): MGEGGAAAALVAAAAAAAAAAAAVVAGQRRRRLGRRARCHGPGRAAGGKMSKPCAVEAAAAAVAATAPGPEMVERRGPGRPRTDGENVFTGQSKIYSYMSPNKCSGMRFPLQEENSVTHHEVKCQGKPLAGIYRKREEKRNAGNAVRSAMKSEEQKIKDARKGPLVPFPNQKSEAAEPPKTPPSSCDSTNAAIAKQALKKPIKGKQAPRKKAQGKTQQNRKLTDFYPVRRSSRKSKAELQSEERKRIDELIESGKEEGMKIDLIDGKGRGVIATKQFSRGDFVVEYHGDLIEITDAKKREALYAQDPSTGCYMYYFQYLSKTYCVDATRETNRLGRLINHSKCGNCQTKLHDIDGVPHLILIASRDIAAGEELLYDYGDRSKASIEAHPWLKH
Chain of Histone-lysine N-methyltransferase SMYD3 (Homo sapiens) (Q9H7B4 whole entry): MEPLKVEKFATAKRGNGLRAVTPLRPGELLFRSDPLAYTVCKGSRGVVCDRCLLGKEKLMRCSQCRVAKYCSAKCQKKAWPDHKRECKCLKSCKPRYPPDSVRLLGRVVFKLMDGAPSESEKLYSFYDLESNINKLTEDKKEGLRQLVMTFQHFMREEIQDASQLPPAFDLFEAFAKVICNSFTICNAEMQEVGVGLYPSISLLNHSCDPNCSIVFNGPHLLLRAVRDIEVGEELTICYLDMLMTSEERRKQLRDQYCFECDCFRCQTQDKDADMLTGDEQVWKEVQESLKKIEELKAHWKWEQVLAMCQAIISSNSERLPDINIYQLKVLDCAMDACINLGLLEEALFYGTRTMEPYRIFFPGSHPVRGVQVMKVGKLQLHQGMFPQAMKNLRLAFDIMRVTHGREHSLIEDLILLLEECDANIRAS
Chain of Histone-lysine N-methyltransferase SETD7 (Homo sapiens) (Q8WTS6 whole entry): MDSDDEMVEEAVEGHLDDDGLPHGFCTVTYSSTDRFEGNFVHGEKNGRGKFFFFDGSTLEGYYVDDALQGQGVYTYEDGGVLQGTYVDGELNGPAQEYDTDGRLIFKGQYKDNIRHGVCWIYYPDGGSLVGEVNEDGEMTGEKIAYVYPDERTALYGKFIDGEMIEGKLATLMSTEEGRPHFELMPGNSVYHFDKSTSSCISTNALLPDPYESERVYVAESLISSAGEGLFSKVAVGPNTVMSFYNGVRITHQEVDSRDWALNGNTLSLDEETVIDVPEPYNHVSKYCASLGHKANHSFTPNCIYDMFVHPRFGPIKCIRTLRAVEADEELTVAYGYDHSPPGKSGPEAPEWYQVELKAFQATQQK
Chain of Protein arginine N-methyltransferase 8 (Homo sapiens) (Q9NR22 2-394 limits assumed): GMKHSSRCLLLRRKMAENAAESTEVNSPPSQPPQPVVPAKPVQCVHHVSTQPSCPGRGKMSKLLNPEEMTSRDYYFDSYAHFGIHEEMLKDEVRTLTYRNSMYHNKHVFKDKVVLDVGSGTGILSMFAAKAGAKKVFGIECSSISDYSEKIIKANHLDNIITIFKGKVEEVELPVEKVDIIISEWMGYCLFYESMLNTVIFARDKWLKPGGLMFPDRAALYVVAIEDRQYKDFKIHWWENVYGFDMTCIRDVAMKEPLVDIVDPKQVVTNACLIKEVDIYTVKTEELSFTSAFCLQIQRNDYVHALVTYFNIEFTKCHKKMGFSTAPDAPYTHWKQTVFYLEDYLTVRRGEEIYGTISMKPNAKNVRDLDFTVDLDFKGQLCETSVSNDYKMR
Chain of Histone-lysine N-methyltransferase, H3 lysine-79 specific (Homo sapiens) (Q8TEK3 whole entry, looked up): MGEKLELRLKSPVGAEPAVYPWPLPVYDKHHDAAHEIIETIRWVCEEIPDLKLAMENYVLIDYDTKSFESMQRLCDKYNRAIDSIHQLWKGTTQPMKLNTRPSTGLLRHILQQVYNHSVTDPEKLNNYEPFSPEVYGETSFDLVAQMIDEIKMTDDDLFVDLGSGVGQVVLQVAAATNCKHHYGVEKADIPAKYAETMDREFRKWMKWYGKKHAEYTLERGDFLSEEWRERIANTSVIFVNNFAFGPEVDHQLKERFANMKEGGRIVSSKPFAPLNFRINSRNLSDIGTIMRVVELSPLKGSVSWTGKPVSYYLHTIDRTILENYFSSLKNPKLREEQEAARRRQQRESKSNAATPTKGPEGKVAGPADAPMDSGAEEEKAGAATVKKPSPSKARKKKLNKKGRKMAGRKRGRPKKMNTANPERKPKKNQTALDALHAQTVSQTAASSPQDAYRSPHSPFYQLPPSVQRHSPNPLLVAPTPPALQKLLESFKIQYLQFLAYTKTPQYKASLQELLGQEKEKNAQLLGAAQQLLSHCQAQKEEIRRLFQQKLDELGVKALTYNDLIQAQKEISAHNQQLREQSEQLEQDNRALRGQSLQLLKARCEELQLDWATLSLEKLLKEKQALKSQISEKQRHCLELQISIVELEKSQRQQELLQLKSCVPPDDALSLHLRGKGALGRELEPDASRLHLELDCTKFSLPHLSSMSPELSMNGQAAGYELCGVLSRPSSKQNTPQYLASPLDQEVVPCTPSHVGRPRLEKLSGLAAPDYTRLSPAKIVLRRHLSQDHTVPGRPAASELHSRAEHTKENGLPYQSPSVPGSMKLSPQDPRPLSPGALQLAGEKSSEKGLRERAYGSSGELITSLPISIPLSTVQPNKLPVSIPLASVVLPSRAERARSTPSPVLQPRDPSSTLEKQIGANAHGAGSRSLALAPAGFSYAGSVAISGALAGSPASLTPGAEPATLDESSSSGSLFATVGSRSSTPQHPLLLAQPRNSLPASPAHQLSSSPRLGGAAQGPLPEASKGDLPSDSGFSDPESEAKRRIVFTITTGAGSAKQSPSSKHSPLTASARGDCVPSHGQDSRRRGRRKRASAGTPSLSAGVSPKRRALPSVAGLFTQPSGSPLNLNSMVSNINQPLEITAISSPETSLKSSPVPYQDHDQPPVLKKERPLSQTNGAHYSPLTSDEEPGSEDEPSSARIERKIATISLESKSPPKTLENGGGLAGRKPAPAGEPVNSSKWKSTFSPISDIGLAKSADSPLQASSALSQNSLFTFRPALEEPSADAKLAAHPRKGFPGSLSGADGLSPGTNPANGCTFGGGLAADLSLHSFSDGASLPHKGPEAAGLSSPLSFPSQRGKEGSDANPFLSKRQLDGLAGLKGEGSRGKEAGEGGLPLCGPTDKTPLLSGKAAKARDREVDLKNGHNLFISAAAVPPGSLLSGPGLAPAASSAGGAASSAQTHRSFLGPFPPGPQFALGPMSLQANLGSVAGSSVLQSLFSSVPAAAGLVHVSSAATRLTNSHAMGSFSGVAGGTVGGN
Chain of DNA (cytosine-5)-methyltransferase 1 (Homo sapiens) (P26358 whole entry): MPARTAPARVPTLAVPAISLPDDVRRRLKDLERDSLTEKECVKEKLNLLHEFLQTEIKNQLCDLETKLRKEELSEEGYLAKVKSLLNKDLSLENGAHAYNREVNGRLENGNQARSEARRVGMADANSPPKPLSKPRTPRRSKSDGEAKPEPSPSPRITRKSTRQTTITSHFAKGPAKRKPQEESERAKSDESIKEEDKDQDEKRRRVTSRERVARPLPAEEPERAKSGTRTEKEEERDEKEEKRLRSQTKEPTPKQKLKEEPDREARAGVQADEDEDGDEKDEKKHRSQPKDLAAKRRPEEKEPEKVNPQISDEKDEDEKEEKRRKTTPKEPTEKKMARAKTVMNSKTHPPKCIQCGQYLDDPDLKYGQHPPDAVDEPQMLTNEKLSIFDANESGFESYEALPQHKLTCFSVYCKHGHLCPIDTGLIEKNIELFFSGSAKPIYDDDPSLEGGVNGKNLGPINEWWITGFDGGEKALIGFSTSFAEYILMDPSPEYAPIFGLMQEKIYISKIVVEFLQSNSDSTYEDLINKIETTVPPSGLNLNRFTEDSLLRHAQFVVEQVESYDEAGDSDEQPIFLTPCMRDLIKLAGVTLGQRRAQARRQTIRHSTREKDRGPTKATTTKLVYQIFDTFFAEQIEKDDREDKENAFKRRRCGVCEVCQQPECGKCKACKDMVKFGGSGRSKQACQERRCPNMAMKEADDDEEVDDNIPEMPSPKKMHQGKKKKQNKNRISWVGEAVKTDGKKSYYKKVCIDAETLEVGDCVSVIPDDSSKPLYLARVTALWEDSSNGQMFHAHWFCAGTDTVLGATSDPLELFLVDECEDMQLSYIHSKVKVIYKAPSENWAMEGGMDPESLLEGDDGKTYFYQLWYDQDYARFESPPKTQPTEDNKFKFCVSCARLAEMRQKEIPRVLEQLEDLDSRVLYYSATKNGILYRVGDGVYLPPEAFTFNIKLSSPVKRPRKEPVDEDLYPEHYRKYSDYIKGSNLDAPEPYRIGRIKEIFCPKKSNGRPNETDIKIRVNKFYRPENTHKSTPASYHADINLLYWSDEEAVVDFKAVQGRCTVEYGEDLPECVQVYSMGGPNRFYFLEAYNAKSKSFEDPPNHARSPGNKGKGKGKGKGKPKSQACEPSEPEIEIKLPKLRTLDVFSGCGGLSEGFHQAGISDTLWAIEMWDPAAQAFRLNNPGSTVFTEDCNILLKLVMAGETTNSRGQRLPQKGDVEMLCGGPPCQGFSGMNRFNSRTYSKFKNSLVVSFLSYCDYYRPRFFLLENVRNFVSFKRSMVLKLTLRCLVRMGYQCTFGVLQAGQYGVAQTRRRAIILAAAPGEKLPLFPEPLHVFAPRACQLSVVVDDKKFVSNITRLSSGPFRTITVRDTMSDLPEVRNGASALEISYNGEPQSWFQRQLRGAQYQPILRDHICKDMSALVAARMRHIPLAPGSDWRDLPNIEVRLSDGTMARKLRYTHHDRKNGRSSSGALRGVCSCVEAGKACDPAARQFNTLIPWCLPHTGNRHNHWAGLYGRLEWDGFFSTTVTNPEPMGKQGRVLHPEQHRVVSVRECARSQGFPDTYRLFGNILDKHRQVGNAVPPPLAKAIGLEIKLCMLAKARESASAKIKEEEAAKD

Compound: COc1cc2c(cc1OCCCN1CCCC1)N=C(N)C21CCC1
inhibition [1]: inactive | inhibition [2]: inactive | Activity (PC-3 [3]): inactive | Activity (PC-3 [4]): inactive | inhibition [5]: inactive | inhibition [6]: inactive | inhibition [7]: 50% | inhibition [8]: inactive | inhibition [9]: inactive | Activity (PC-3 [10]): inactive | IC50 [11]: 38 nM | inhibition [12]: inactive | inhibition [13]: inactive | inhibition [14]: inactive | inhibition [15]: inactive | inhibition [16]: inactive | inhibition [17]: inactive | inhibition [18]: inactive | inhibition [19]: inactive | inhibition [20]: inactive | inhibition [21]: inactive | inhibition [22]: inactive | inhibition [23]: inactive | inhibition [24]: inactive | inhibition [25]: inactive | inhibition [26]: inactive

Compound: COc1cc2c(cc1OCCCN1CC[C@@H](F)C1)N=C(N)C21CCC1
IC50 [27]: 3.7 nM

Compound: COc1cc2c(NC3CCN(C(C)C)CC3)nc(C3CCCCC3)nc2cc1OCCCN1CCCC1
Activity (PC-3 [3]): inactive | Activity (PC-3 [4]): inactive | inhibition [7]: 50% | Activity (PC-3 [10]): inactive

The next lines start with the values.

IC50 [27]: 18 nM
Compound: COc1cc2c(cc1OCCCN1CC[C@H](F)C1)N=C(N)C21CCC1

IC50 [27]: 14400 nM
Compound: COc1cc2cc(N)[nH]c2cc1OC
